According to patent US20260022143A1, “Cyclic Peptide Inhibitors of IL-23” (JANSSEN PHARMACEUTICA NV, priority 2022, published 2026):
Where two headings read alike, the source gives them in different places. Positions of bridges follow the written chain, without caps; N, C: chain ends. Non-standard residues stand in square brackets, D forms with d. Residues, ends and D or L forms follow the SMILES beside them. *: point of attachment. Me3N+(CH2)2O(CH2)2O(CH2)2CO = C[N+](C)(C)CCOCCOCCC(=O)*; CH2CH2OCH2CH2OCH2CH2NMe3+ = C[N+](C)(C)CCOCCOCC*; Trp(7-Me) = Cc1cccc2c(C[C@H](N)C(=O)O)c[nH]c12; 2Nal = N[C@@H](Cc1ccc2ccccc2c1)C(=O)O; 3Pal = N[C@@H](Cc1cccnc1)C(=O)O; Lys(Me) = CNCCCC[C@H](N)C(=O)O; Pen = CC(C)(S)[C@H](N)C(=O)O; Thp = NC1(C(=O)O)CCOCC1; X3 = C[N+](C)(C)CCCCC*; Sar = CNCC(=O)O

How the values were obtained:
[1] = biological target: T1, IL-23R (Homo sapiens, UniProt Q5VWK5); experiment: IL23R Reporter Assay; type: cell-based; details: HEK293 cells containing IL-23R, IL-12RP1 and STAT-inducible firefly luciferase reporter; 10 ng/mL IL-23 (EC90); 5 h at 37° C.; read-out: IL23R Reporter Assay
T1 construct: host or cells: HEK293
T1 sequence (Q5VWK5 24-629): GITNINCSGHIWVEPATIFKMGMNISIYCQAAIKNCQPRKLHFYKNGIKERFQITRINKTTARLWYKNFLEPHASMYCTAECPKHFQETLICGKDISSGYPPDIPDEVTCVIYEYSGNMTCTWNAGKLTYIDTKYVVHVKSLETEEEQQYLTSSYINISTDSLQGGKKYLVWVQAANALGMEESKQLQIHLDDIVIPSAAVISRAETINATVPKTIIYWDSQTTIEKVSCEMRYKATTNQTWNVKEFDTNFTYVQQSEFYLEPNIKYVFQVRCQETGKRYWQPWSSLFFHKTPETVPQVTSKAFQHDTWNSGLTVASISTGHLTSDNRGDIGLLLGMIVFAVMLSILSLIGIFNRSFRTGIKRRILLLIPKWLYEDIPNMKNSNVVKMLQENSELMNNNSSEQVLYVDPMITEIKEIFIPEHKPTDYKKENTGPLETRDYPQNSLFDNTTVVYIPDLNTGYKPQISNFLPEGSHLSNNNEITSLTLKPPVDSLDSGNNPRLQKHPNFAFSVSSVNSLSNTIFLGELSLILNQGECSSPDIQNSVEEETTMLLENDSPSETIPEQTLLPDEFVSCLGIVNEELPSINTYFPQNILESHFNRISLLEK

[2] = Exposed Polar Surface Area (EPSA); type: physicochemical; details: SFC on Chirex 3014 column; sample 1 mM DMSO stock; read-out: EPSA
Method in brief: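 SFC retention on a Chirex 3014 (S)-valine/(R)-1-(α-naphthyl)ethylamine column, 35 °C, CO2 with MeOH (20 mM ammonium formate) gradient 5–60% at 20%/min, 14 MPa outlet. Retention times converted to EPSA (Å^2) via linear calibration with 8 standards; samples from 1 mM DMSO stock, run in duplicate.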

[3] = biological target: T2, interleukin-23 (IL-23) receptor (Homo sapiens, UniProt Q5VWK5); experiment: PBMC pSTAT3 assay; type: cell-based
T2 construct: Cryopreserved peripheral blood mononuclear cells (PBMCs) from healthy donors were thawed; endogenous in cells; host or cells: cryopreserved PBMCs from healthy donors, expanded 4 days on anti-CD3 with IL-1
T2 sequence (Q5VWK5 24-629): T1 sequence (Q5VWK5 24-629)
Description: Cryopreserved peripheral blood mononuclear cells (PBMCs) from healthy donors were thawed and washed twice in ImmunoCult-XF T cell expansion medium (XF-TCEM) supplemented with CTL anti-aggregate wash. The cells were counted, resuspended at 2×10^5 cells per mL XF-TCEM supplemented with penicillin/streptomycin and 100 ng/mL IL-1 (BioLegend, 579404), and cultured in tissue culture flasks coated with anti-CD3 (eBioscience, 16-0037-85 or BD Pharmingen, 555329) at 37° C. in 5% CO2. On day 4 of culture, PBMCs were collected, washed twice in RPMI-1640 supplemented with 0.1% BSA (RPMI-BSA), and incubated in RPMI-BSA in upright tissue culture flasks for 4 hours at 37° C. in 5% CO2. Following this ‘starvation,’ a total of 6×10^4 cells in […] RPMI-BSA was transferred into each well of a 384-well plate pre-spotted with peptide or DMSO. The cells were incubated for 30 minutes prior to the addition of IL-23 at a final concentration of 5 ng/mL. The cells were stimulated with cytokine for 30 minutes at 37° C. in 5% CO2, transferred onto ice for 10 minutes, and lysed. Cell lysates were stored at −80° C. until phosphorylated STAT3 was measured using the phospho-STAT panel kit (Meso Scale Discovery, K15202D).

[4] = disulfide bond, 20-membered ring

Row | IC50 [1] | EPSA [2] | IC50 [3] | Molecule | further results
1 | 2000 pM | 136 A^2 | 37 pM | CC(=O)N(C)CCCC[C@@H]1NC(=O)[C@H](Cc2c[nH]c3c(C)cccc23)NC(=O)[C@H]([C@@H](C)O)NC(=O)[C@H](CC(=O)N(C)C)NC(=O)[C@@H](NC(=O)CCOCCOCC[N+](C)(C)C)C(C)(C)SSC(C)(C)[C@@H](C(=O)N[C@@H](Cc2ccc(OCCOCCOCC[N+](C)(C)C)cc2)C(=O)N[C@@H](Cc2ccc3ccccc3c2)C(=O)NC2(C(=O)N[C@@H](CCCCN(C)C(C)=O)C(=O)N[C@@H](CC(N)=O)C(=O)N[C@@H](Cc3cccnc3)C(=O)N(C)CC(=O)N(C)C)CCOCC2)NC1=O [compound 181, cPEG3aCO-Pen(3)-N(N(Me)2)-T-7MeW-K(NMeAc)-Pen(3)-APEG3F-2Nal-THP-K(NMeAc)-N-3Pya-Sar-CON(Me)2] ({Me3N+(CH2)2O(CH2)2O(CH2)2CO}-[Pen]D(NMe2)T[Trp(7-Me)][Lys(Me)](Ac)[Pen]Y(CH2CH2OCH2CH2OCH2CH2NMe3+)[2Nal][Thp][Lys(Me)](Ac)N[3Pal][Sar]-NMe2; disulfide 1-6) | –
2 | 1600 pM | 158 A^2 | 7.5 pM | CC(=O)NCCCC[C@@H]1NC(=O)[C@H](Cc2c[nH]c3c(C)cccc23)NC(=O)[C@H]([C@@H](C)O)NC(=O)[C@H](CC(N)=O)NC(=O)[C@@H](NC(C)=O)C(C)(C)SSC(C)(C)[C@@H](C(=O)N[C@@H](Cc2ccc(OCCCCC[N+](C)(C)C)cc2)C(=O)N[C@@H](Cc2ccc3ccccc3c2)C(=O)NC2(C(=O)N[C@@H](CCCCNC(C)=O)C(=O)N[C@@H](CC(N)=O)C(=O)N[C@@H](Cc3cccnc3)C(=O)N(C)CC(N)=O)CCOCC2)NC1=O [compound 281, MeCO-Pen(3)-N-T-7MeW-K(Ac)-Pen(3)-TMAPF-2Nal-THP-K(Ac)-N-3Pya-Sar-CONH2] (Ac-[Pen]NT[Trp(7-Me)]K(Ac)[Pen]Y(X3)[2Nal][Thp]K(Ac)N[3Pal][Sar]-NH2; disulfide 1-6 (inferred)) | –
3 | – | – | – | CF3CO-Pen(3)-N(N(Me)2)-T-7MeW-K(NMeAc)-Pen(3)-AEF-2Nal-THP-K(NMeAc)-N-3Pya-Sar-CON(Me)2 | ring closure, yield after HPLC ([4]; I2/MeOH, 20% MeCN/H2O, 0.56 mM): 12.1%
4 | – | – | – | MeCO-k(Me)3-Pen(3)-N(N(Me)2)-T-7MeW-K(NMeAc)-Pen(3)-AEF(N(Me)2)-2Nal-THP-E-N-3Pya-Sar-CON(Me)2 | ring closure, yield after HPLC ([4]; I2/AcOH, MeCN/H2O, […]): 13.4%
5 | – | – | – | cPEG5aCO-Pen(3)-N(N(Me)2)-T-7MeW-Dab(NMecPEG5a)-Pen(3)-AEF-2Nal-THP-E-N-3Pya-Sar-CON(Me)2 | ring closure, yield after HPLC ([4]; I2/AcOH, MeCN/H2O, 2.05 mM): 10%
